In US10506810B2, “Synergistic herbicidal composition” (QINGDAO KINGAGROOT RESISTANT WEED MANAGEMENT CO., LTD., priority 2015, dated 2019):
Where two headings read alike, the source gives them in different places.

Assays:
Test in all cases: pot-culture method, stem and leaf treatment in greenhouse, fresh weight inhibition rate 20 days after treatment (Gowing method)
Type in all cases: in vivo
Alopecurus japonicus = test system: Alopecurus japonicus
Method: (§1) Capsella bursa-pastoris, Myosoton aquaticum, Alopecurus japonicus were collected from corn fields in Huangdao Experimental Base of Shandong Province.
(§2) The above weeds were cultivated by a pot culture method. […] Full and uniform weed seeds were selected, soaked in warm water at 25° C. for 6 hours, and germinated in a 28° C. biochemical incubator (darkness). […] A certain amount of water was added to the enamel pan regularly to keep the soil moist.
(§3) The technical materials were all dissolved in acetone, and diluted with an aqueous solution containing 0.1% emulsifier T-80. The dilution is performed as required.
(§4) A ratio of the active ingredient A to the active ingredient B and amounts thereof in each group depends on the characteristics and toxicity of the two agents, as well as the main application purpose of a corresponding formulation. Based on the pre-tests in this study, the dosage of the active ingredient A and the active ingredient B applied alone and in combination were shown in the tables, and a total 15 groups were designed. Water containing the solvent and emulsifier same with the above groups but free of the agents was used as a blank control.
(§5) 3 pots with 20 weed seeds per pot were treated in one treatment with […] per treatment, that is, a total of 60 weeds were treated in one treatment.
(§6) The agents were used for only once in the experiment. In the stage of weeds with 2 leaves and 1 core, the weeds were thinned out to maintain 15 weeds per pot and 45 weeds for each treatment, then continued to be cultured to 3-5-leaves stage of Capsella bursa-pastoris and Myosoton aquaticum, and 3-leaves and 1-core stage of Alopecurus japonicus, and treated.
(§7) The well-cultured weeds were evenly placed on a platform with an area of 0.5 m^2, and a solution of agents was sprayed on the stems and leaves thereof by the 3WP-2000-type walking spray tower at a dosage of 30 kg/ha and at a spray pressure of 0.3 MPa. After all the solution was sprayed, the valve was closed. After 30 seconds, the door of the spray tower was opened, and the nutritional bowl was taken out. Then the valve was opened, and the spray tube was cleaned by spraying 50 ml of water.
(§8) A pot-culture method was employed. For the cultivation of weeds, please refer to the Section 1.2, and “Pesticide guidelines for laboratory bioactivity tests—herbicides”. As to a method for applying agents, please refer to the section 2.3.2, that is, a method for treating stems and leaves was employed.
(§9) A method for investigating absolute number was employed, wherein whole seedlings of survival weeds were cut off with a blade along the soil surface, and the fresh weight of the weeds was weighed with an analytical balance. For dead weeds, the fresh weight thereof was zero.
(§10) The investigation was performed after 20 days of the treatment for only once.
(§11) Wherein, in the formula, X represented the fresh weight inhibition rate of the active ingredient A in a dosage of P, and Y represented the fresh weight inhibition rate of the active ingredient B in a dosage of Q.

Capsella bursa-pastoris = test system: Capsella bursa-pastoris
Method: as §1, §2, §3, §4, §5, §6, §7, §8, §9, §10, §11

Myosoton aquaticum = test system: Myosoton aquaticum
Method: as §1, §2, §3, §4, §5, §6, §7, §8, §9, §10, §11

[1] = Capsella bursa-pastoris, 480 h, read-out: actual fresh weight inhibition rate
[2] = Myosoton aquaticum, 480 h, read-out: actual fresh weight inhibition rate

## COc1cc(OC)n2nc(NS(=O)(=O)c3c(C(F)(F)F)ccnc3OC)nc2n1 [pyroxsulam]
Alopecurus japonicus; dosage 5 g/hm^2
  actual fresh weight inhibition rate: 63.5%
Alopecurus japonicus; dosage 10 g/hm^2
  actual fresh weight inhibition rate: 81.9%
Alopecurus japonicus; dosage 15 g/hm^2
  actual fresh weight inhibition rate: 91.5%
Capsella bursa-pastoris; dosage 5 g/hm^2
  actual fresh weight inhibition rate: 19.4%
Capsella bursa-pastoris; dosage 10 g/hm^2
  actual fresh weight inhibition rate: 31.7%
Capsella bursa-pastoris; dosage 15 g/hm^2
  actual fresh weight inhibition rate: 55.6%

## C[C@@H](Oc1ccc(Oc2ncc(Cl)cc2F)cc1)C(=O)O [clodinafop]
Alopecurus japonicus; Alopecurus japonicus, 40 g/hm^2
  actual fresh weight inhibition rate: 81.3%
Alopecurus japonicus; Alopecurus japonicus, 65 g/hm^2
  actual fresh weight inhibition rate: 87.4%
Alopecurus japonicus; Alopecurus japonicus, 90 g/hm^2
  actual fresh weight inhibition rate: 95.6%
Capsella bursa-pastoris; Capsella bursa-pastoris, 40 g/hm^2
  actual fresh weight inhibition rate: 0%
Capsella bursa-pastoris; Capsella bursa-pastoris, 65 g/hm^2
  actual fresh weight inhibition rate: 0%
Capsella bursa-pastoris; Capsella bursa-pastoris, 90 g/hm^2
  actual fresh weight inhibition rate: 0%

## CCO/N=C(\CC)C1=C(O)CC(c2c(C)cc(C)cc2C)CC1=O (stereo not drawn) [tralkoxydim]
Alopecurus japonicus; Alopecurus japonicus, 240 g/hm^2
  actual fresh weight inhibition rate: 74.5%
Alopecurus japonicus; Alopecurus japonicus, 360 g/hm^2
  actual fresh weight inhibition rate: 81.2%
Alopecurus japonicus; Alopecurus japonicus, 480 g/hm^2
  actual fresh weight inhibition rate: 89.8%
Capsella bursa-pastoris; [1]
  pest or weed control at 240 g/ha: 0%
  pest or weed control at 360 g/ha: 0%
  pest or weed control at 480 g/ha: 0%

## COc1nn(C(=O)[N-]S(=O)(=O)c2ccccc2OC(F)(F)F)c(=O)n1C.[Na+] [Flucarbazone-sodium]
Alopecurus japonicus; dosage 20 g/hm^2
  actual fresh weight inhibition rate: 69.6%
Alopecurus japonicus; dosage 35 g/hm^2
  actual fresh weight inhibition rate: 80.3%
Alopecurus japonicus; dosage 50 g/hm^2
  actual fresh weight inhibition rate: 85.6%
Capsella bursa-pastoris; dosage 20 g/hm^2
  actual fresh weight inhibition rate: 25.6%
Capsella bursa-pastoris; dosage 35 g/hm^2
  actual fresh weight inhibition rate: 42.7%
Capsella bursa-pastoris; dosage 50 g/hm^2
  actual fresh weight inhibition rate: 65.1%

## CCCCCCCC(=O)Oc1c(Br)cc(C#N)cc1Br [bromoxynil octanoate]
Capsella bursa-pastoris; Capsella bursa-pastoris, 480 h, dosage 190 g/hm^2, read-out: actual fresh weight inhibition rate
  pest or weed control at 190 g/ha: 42.7%
Capsella bursa-pastoris; Capsella bursa-pastoris, 480 h, dosage 375 g/hm^2, read-out: actual fresh weight inhibition rate
  pest or weed control at 375 g/ha: 55.7%
Capsella bursa-pastoris; Capsella bursa-pastoris, 480 h, dosage 560 g/hm^2, read-out: actual fresh weight inhibition rate
  pest or weed control at 560 g/ha: 78.6%
Myosoton aquaticum; Myosoton aquaticum, 480 h, dosage 190 g/hm^2, read-out: actual fresh weight inhibition rate
  pest or weed control at 190 g/ha: 25.8%
Myosoton aquaticum; Myosoton aquaticum, 480 h, dosage 375 g/hm^2, read-out: actual fresh weight inhibition rate
  pest or weed control at 375 g/ha: 38.5%
Myosoton aquaticum; Myosoton aquaticum, 480 h, dosage 560 g/hm^2, read-out: actual fresh weight inhibition rate
  pest or weed control at 560 g/ha: 57.3%

## Cc1nn(-c2cc(CC(Cl)C(=O)O)c(Cl)cc2F)c(=O)n1C(F)F (stereo not drawn) [carfentrazone, reference compound]
Capsella bursa-pastoris; dosage 12 g/hm^2
  actual fresh weight inhibition rate (%): 55.2%
Capsella bursa-pastoris; dosage 24 g/hm^2
  actual fresh weight inhibition rate (%): 71.3%
Capsella bursa-pastoris; dosage 36 g/hm^2
  actual fresh weight inhibition rate (%): 80.5%
Myosoton aquaticum; dosage 12 g/hm^2
  actual fresh weight inhibition rate (%): 32.1%
Myosoton aquaticum; dosage 24 g/hm^2
  actual fresh weight inhibition rate (%): 45.8%
Myosoton aquaticum; dosage 36 g/hm^2
  actual fresh weight inhibition rate (%): 60.1%

## COC(=O)c1ccc(CNS(C)(=O)=O)cc1S(=O)(=O)NC(=O)Nc1nc(OC)cc(OC)n1 [mesosulfuron-methyl]
Alopecurus japonicus; dosage 6 g/hm^2
  actual fresh weight inhibition rate: 67.9%
Alopecurus japonicus; dosage 9 g/hm^2
  actual fresh weight inhibition rate: 73.2%
Alopecurus japonicus; dosage 12 g/hm^2
  actual fresh weight inhibition rate: 88.9%
Capsella bursa-pastoris; dosage 6 g/hm^2
  actual fresh weight inhibition rate: 24.5%
Capsella bursa-pastoris; dosage 9 g/hm^2
  actual fresh weight inhibition rate: 37.6%
Capsella bursa-pastoris; dosage 12 g/hm^2
  actual fresh weight inhibition rate: 63.4%

## CC(C)c1ccc(NC(=O)N(C)C)cc1 [isoproturon]
Capsella bursa-pastoris; 480 h, Capsella bursa-pastoris, 300 g/hm^2, read-out: actual fresh weight inhibition rate
  pest or weed control at 300 g/ha: 21.7%
Capsella bursa-pastoris; 480 h, Capsella bursa-pastoris, 750 g/hm^2, read-out: actual fresh weight inhibition rate
  pest or weed control at 750 g/ha: 33.7%
Capsella bursa-pastoris; 480 h, Capsella bursa-pastoris, 1200 g/hm^2, read-out: actual fresh weight inhibition rate
  pest or weed control at 1200 g/ha: 57.2%
Myosoton aquaticum; Myosoton aquaticum, 480 h, Myosoton aquaticum, 300 g/hm^2, read-out: actual fresh weight inhibition rate
  pest or weed control at 300 g/ha: 19.4%
Myosoton aquaticum; Myosoton aquaticum, 480 h, Myosoton aquaticum, 750 g/hm^2, read-out: actual fresh weight inhibition rate
  pest or weed control at 750 g/ha: 26.4%
Myosoton aquaticum; Myosoton aquaticum, 480 h, Myosoton aquaticum, 1200 g/hm^2, read-out: actual fresh weight inhibition rate
  pest or weed control at 1200 g/ha: 47.5%

## CN(C)C(=O)SCCCCOc1ccccc1 [fenothiocarb]
Capsella bursa-pastoris; [1]
  pest or weed control at 40 g/ha: 0%
  pest or weed control at 65 g/ha: 0%
  pest or weed control at 90 g/ha: 0%
Myosoton aquaticum; [2]
  pest or weed control at 40 g/ha: 70.3%
  pest or weed control at 65 g/ha: 84.5%
  pest or weed control at 90 g/ha: 97.3%

## O=C(Nc1ccc(F)cc1F)c1cccnc1Oc1cccc(C(F)(F)F)c1 [diflufenican]
Capsella bursa-pastoris; 480 h, Capsella bursa-pastoris, 40 g/hm^2, read-out: actual fresh weight inhibition rate
  pest or weed control at 40 g/ha: 33.1%
Capsella bursa-pastoris; 480 h, Capsella bursa-pastoris, 80 g/hm^2, read-out: actual fresh weight inhibition rate
  pest or weed control at 80 g/ha: 48.2%
Capsella bursa-pastoris; 480 h, Capsella bursa-pastoris, 120 g/hm^2, read-out: actual fresh weight inhibition rate
  pest or weed control at 120 g/ha: 63.4%
Myosoton aquaticum; Myosoton aquaticum, 480 h, Myosoton aquaticum, 40 g/hm^2, read-out: actual fresh weight inhibition rate
  pest or weed control at 40 g/ha: 24.1%
Myosoton aquaticum; Myosoton aquaticum, 480 h, Myosoton aquaticum, 80 g/hm^2, read-out: actual fresh weight inhibition rate
  pest or weed control at 80 g/ha: 46.2%
Myosoton aquaticum; Myosoton aquaticum, 480 h, Myosoton aquaticum, 120 g/hm^2, read-out: actual fresh weight inhibition rate
  pest or weed control at 120 g/ha: 66.5%

## CCc1cc(C)cc(CC)c1-c1c(OC(=O)C(C)(C)C)n2n(c1=O)CCOCC2 [pinoxaden]
Alopecurus japonicus; dosage 60 g/hm^2
  actual fresh weight inhibition rate: 69.2%
Alopecurus japonicus; dosage 80 g/hm^2
  actual fresh weight inhibition rate: 78.6%
Alopecurus japonicus; dosage 120 g/hm^2
  actual fresh weight inhibition rate: 85.2%
Capsella bursa-pastoris; Capsella bursa-pastoris, 480 h, dosage 60 g/hm^2, read-out: actual fresh weight inhibition rate
  pest or weed control at 60 g/ha: 0%
Capsella bursa-pastoris; Capsella bursa-pastoris, 480 h, dosage 80 g/hm^2, read-out: actual fresh weight inhibition rate
  pest or weed control at 80 g/ha: 0%
Capsella bursa-pastoris; Capsella bursa-pastoris, 480 h, dosage 120 g/hm^2, read-out: actual fresh weight inhibition rate
  pest or weed control at 120 g/ha: 0%

## CSc1nnc(C(C)(C)C)c(=O)n1N [metribuzin, reference compound]
Capsella bursa-pastoris; dosage 13.5 g/hm^2
  actual fresh weight inhibition rate (%): 55.6%
Capsella bursa-pastoris; dosage 25 g/hm^2
  actual fresh weight inhibition rate (%): 64.1%
Capsella bursa-pastoris; dosage 36.5 g/hm^2
  actual fresh weight inhibition rate (%): 82.3%
Myosoton aquaticum; dosage 13.5 g/hm^2
  actual fresh weight inhibition rate (%): 42.1%
Myosoton aquaticum; dosage 25 g/hm^2
  actual fresh weight inhibition rate (%): 52.9%
Myosoton aquaticum; dosage 36.5 g/hm^2
  actual fresh weight inhibition rate (%): 58.5%

## N#Cc1cc(Br)c(O)c(Br)c1 [Bromoxynil]
Capsella bursa-pastoris; Capsella bursa-pastoris, 480 h, dosage 240 g/hm^2, read-out: actual fresh weight inhibition rate
  pest or weed control at 240 g/ha: 40.6%
Capsella bursa-pastoris; Capsella bursa-pastoris, 480 h, dosage 360 g/hm^2, read-out: actual fresh weight inhibition rate
  pest or weed control at 360 g/ha: 58.5%
Capsella bursa-pastoris; Capsella bursa-pastoris, 480 h, dosage 480 g/hm^2, read-out: actual fresh weight inhibition rate
  pest or weed control at 480 g/ha: 81.3%
Myosoton aquaticum; Myosoton aquaticum, 480 h, dosage 240 g/hm^2, read-out: actual fresh weight inhibition rate
  pest or weed control at 240 g/ha: 30.5%
Myosoton aquaticum; Myosoton aquaticum, 480 h, dosage 360 g/hm^2, read-out: actual fresh weight inhibition rate
  pest or weed control at 360 g/ha: 38.7%
Myosoton aquaticum; Myosoton aquaticum, 480 h, dosage 480 g/hm^2, read-out: actual fresh weight inhibition rate
  pest or weed control at 480 g/ha: 47.9%

## CC(C)CCCCCOC(=O)COc1ccc(Cl)cc1Cl [2,4-D isooctyl ester, reference compound]
Capsella bursa-pastoris; dosage 200 g/hm^2
  actual fresh weight inhibition rate (%): 21.1%
Capsella bursa-pastoris; dosage 350 g/hm^2
  actual fresh weight inhibition rate (%): 34.2%
Capsella bursa-pastoris; dosage 500 g/hm^2
  actual fresh weight inhibition rate (%): 55.9%
Myosoton aquaticum; dosage 200 g/hm^2
  actual fresh weight inhibition rate (%): 15.4%
Myosoton aquaticum; dosage 350 g/hm^2
  actual fresh weight inhibition rate (%): 26.3%
Myosoton aquaticum; dosage 500 g/hm^2
  actual fresh weight inhibition rate (%): 47.9%
